Data as given in ChEMBL document CHEMBL4483862, “Open-source discovery of chemical leads for next-generation chemoprotective antimalarials” (2018).

System: Plasmodium berghei
Experiment: Luciferase/luciferin-expressing antifolate-resistant parasites were used to infect a culture of HepG2 cells that were pre-incubated with compounds. Infected hepatocytes emit light due to the luciferase reaction. Assay results are presented as the percent inhibition of light emission compared to control. […]
Assay type: functional
Conditions: sporozoite; for IC90: read-out: LUCIFERASE INFECTION ASSAY - IC90

Compound | IC90 [µM] | also measured
CC(C)(C)c1ccc(S(=O)(=O)Nc2ccc(O)c(Sc3nc4ccccc4s3)c2)cc1 | > 10 | IC50 (HEPG2TOX_HILL_SLOPE 0.314, HEPG2TOX_R_SQUARED 0.616, read-out: LUCIFERASE INFECTION ASSAY - IC50): > 10 µM
CC(=O)Nc1cccc(-c2cc(NC=O)c3ncc(-c4ccc(C(C)=O)cc4)n3c2)c1 | > 8 | IC50 (HEPG2TOX_HILL_SLOPE 0.38, HEPG2TOX_R_SQUARED 0.804, PBLUC_HILL_SLOPE 0.536, PBLUC_R_SQUARED 0.0495, read-out: LUCIFERASE INFECTION ASSAY - IC50): > 8 µM
c1ccc(-c2cn3c(-c4ccc5c(c4)OCO5)cnc3cn2)cc1 | > 10.5 | IC50 (HEPG2TOX_HILL_SLOPE 0.346, HEPG2TOX_R_SQUARED 0.507, PBLUC_HILL_SLOPE 2.83, PBLUC_R_SQUARED 0.466, read-out: LUCIFERASE INFECTION ASSAY - IC50): 9.02 µM
CN(C)c1ccc(-c2cnc3cnc(-c4ccccc4N(C)C)cn23)cc1 | 0.0642 | IC50 (HEPG2TOX_HILL_SLOPE 0.323, HEPG2TOX_R_SQUARED 0.566, PBLUC_HILL_SLOPE 1.8, PBLUC_R_SQUARED 0.657, read-out: LUCIFERASE INFECTION ASSAY - IC50): 0.0189 µM
CCN(Cc1ccc(OCc2ccccc2)cc1)C(=O)CN1CCc2cc(S(N)(=O)=O)ccc21 | > 10 | IC50 (HEPG2TOX_HILL_SLOPE 0.311, HEPG2TOX_R_SQUARED 0.495, read-out: LUCIFERASE INFECTION ASSAY - IC50): > 10 µM
CCCc1cc(=O)n2ncc(-c3ccccc3)c2[nH]1 | 12.2 | IC50 (HEPG2TOX_HILL_SLOPE 0.383, HEPG2TOX_R_SQUARED 0.727, PBLUC_HILL_SLOPE 12.3, PBLUC_R_SQUARED 0.782, read-out: LUCIFERASE INFECTION ASSAY - IC50): 10.2 µM
CCOc1ccccc1NC(=O)/C=C/c1nnc2c3ccccc3cnn12 | > 10 | IC50 (HEPG2TOX_HILL_SLOPE 0.359, HEPG2TOX_R_SQUARED 0.214, PBLUC_HILL_SLOPE 0.79, PBLUC_R_SQUARED 0.499, read-out: LUCIFERASE INFECTION ASSAY - IC50): 1.82 µM
CC(C)Cc1ccc(C(C)c2nn3c(-c4cccnc4)nnc3s2)cc1 (configuration not stated) | 5.44 | IC50 (HEPG2TOX_HILL_SLOPE 0.365, HEPG2TOX_R_SQUARED 0.691, PBLUC_HILL_SLOPE 1.54, PBLUC_R_SQUARED 0.896, read-out: LUCIFERASE INFECTION ASSAY - IC50): 1.31 µM
Clc1ccccc1C(CNc1ncnc2sccc12)N1CCCC1 (configuration not stated) | > 10 | IC50 (HEPG2TOX_HILL_SLOPE 0.371, HEPG2TOX_R_SQUARED 0.706, PBLUC_HILL_SLOPE 3.78, PBLUC_R_SQUARED 0.473, read-out: LUCIFERASE INFECTION ASSAY - IC50): 7.08 µM
c1ccc2c(NCCNc3ncnc4ccccc34)cccc2c1 | 4.93 | IC50 (HEPG2TOX_HILL_SLOPE 0.364, HEPG2TOX_R_SQUARED 0.666, PBLUC_HILL_SLOPE 0.695, PBLUC_R_SQUARED 0.76, read-out: LUCIFERASE INFECTION ASSAY - IC50): 0.209 µM
CNc1snc(C)c1C(=O)OCc1csc(-c2ccccc2)n1 | 1.26 | IC50 (HEPG2TOX_HILL_SLOPE 0.385, HEPG2TOX_R_SQUARED 0.759, PBLUC_HILL_SLOPE 1.19, PBLUC_R_SQUARED 0.693, read-out: LUCIFERASE INFECTION ASSAY - IC50): 0.2 µM
CC(C)Cc1ccc(C(C)c2nn3c(-c4ccco4)nnc3s2)cc1 (configuration not stated) | 0.257 | IC50 (HEPG2TOX_HILL_SLOPE 0.343, HEPG2TOX_R_SQUARED 0.467, PBLUC_HILL_SLOPE 2.04, PBLUC_R_SQUARED 0.902, read-out: LUCIFERASE INFECTION ASSAY - IC50): 0.0873 µM
CC(C(=O)Nc1cc([N+](=O)[O-])ccc1Cl)N(C)CC(=O)Nc1ccc(Cl)c(C(F)(F)F)c1 (configuration not stated) | > 10 | IC50 (HEPG2TOX_HILL_SLOPE 0.377, HEPG2TOX_R_SQUARED 0.303, read-out: LUCIFERASE INFECTION ASSAY - IC50): > 10 µM
Cc1ccc(-n2c(C)cc(C(=O)CSc3nc(N)cc(N)n3)c2C)cc1C | 4.39 | IC50 (HEPG2TOX_HILL_SLOPE 0.381, HEPG2TOX_R_SQUARED 0.896, PBLUC_HILL_SLOPE 2.47, PBLUC_R_SQUARED 0.602, read-out: LUCIFERASE INFECTION ASSAY - IC50): 1.81 µM
NC(=O)c1cc(S(=O)(=O)N2CCCC2)ccc1OCc1nc2ccccc2s1 | > 10 | IC50 (HEPG2TOX_HILL_SLOPE 0.311, HEPG2TOX_R_SQUARED 0.0458, PBLUC_HILL_SLOPE 3.01, PBLUC_R_SQUARED 0.0562, read-out: LUCIFERASE INFECTION ASSAY - IC50): 7.99 µM
CC(=O)c1cccc(-c2cnc3ccc(-c4ccoc4)nn23)c1 | 6.77 | IC50 (HEPG2TOX_HILL_SLOPE 0.314, HEPG2TOX_R_SQUARED 0.72, PBLUC_HILL_SLOPE 2.12, PBLUC_R_SQUARED 0.552, read-out: LUCIFERASE INFECTION ASSAY - IC50): 2.41 µM

Compound | IC90 [µM] | also measured
CCOC(=O)c1sc(N)c(C#N)c1CSc1nnnn1-c1ccccc1 | > 10 | IC50 (HEPG2TOX_HILL_SLOPE 0.327, HEPG2TOX_R_SQUARED 0.288, read-out: LUCIFERASE INFECTION ASSAY - IC50): > 10 µM
COc1ccc(-c2cnc3cnc(-c4ccccc4C)cn23)cc1 | 0.0475 | IC50 (HEPG2TOX_HILL_SLOPE 0.359, HEPG2TOX_R_SQUARED 0.561, PBLUC_HILL_SLOPE 8.88, PBLUC_R_SQUARED 0.713, read-out: LUCIFERASE INFECTION ASSAY - IC50): 0.0371 µM
COc1ccc(OC)c(CCNc2nc3cnc(-c4ccccc4C)cc3n2C)c1 | 0.0474 | IC50 (HEPG2TOX_HILL_SLOPE 0.343, HEPG2TOX_R_SQUARED 0.532, PBLUC_HILL_SLOPE 5.82, PBLUC_R_SQUARED 0.631, read-out: LUCIFERASE INFECTION ASSAY - IC50): 0.0325 µM
Nc1nc(N)nc(COC(=O)c2c3c(nc4ccccc24)/C(=C/c2c(F)cccc2Cl)CC3)n1 | > 10 | IC50 (HEPG2TOX_HILL_SLOPE 0.332, HEPG2TOX_R_SQUARED 0.762, PBLUC_HILL_SLOPE 7.86, PBLUC_R_SQUARED 0.0482, read-out: LUCIFERASE INFECTION ASSAY - IC50): > 10 µM
Cc1sc2ncnc(Oc3ccc4ccccc4c3)c2c1-c1ccccc1 | > 10 | IC50 (HEPG2TOX_HILL_SLOPE 0.313, HEPG2TOX_R_SQUARED 0.61, PBLUC_HILL_SLOPE 2.74, PBLUC_R_SQUARED 0.421, read-out: LUCIFERASE INFECTION ASSAY - IC50): 6.76 µM
COc1ccc(C(=O)N2CCN(c3ncnc4cc(Cl)ccc34)CC2)cc1 | > 10 | IC50 (HEPG2TOX_HILL_SLOPE 0.344, HEPG2TOX_R_SQUARED 0.575, PBLUC_HILL_SLOPE 18.9, PBLUC_R_SQUARED 0.0549, read-out: LUCIFERASE INFECTION ASSAY - IC50): 9.92 µM
CCS(=O)(=O)N1CCC(C(=O)Nc2nc3ccc(Oc4ccccc4)cc3s2)CC1 | > 10 | IC50 (HEPG2TOX_HILL_SLOPE 0.324, HEPG2TOX_R_SQUARED 0.65, PBLUC_HILL_SLOPE 2.34, PBLUC_R_SQUARED 0.492, read-out: LUCIFERASE INFECTION ASSAY - IC50): 5.6 µM
CC1=C2CCC(C)CC23C2C(=O)N(Cc4ccc(Cl)cc4)C(=O)C2C1C1C(=O)N(Cc2ccc(Cl)cc2)C(=O)C13 (configuration not stated) | > 5.71 | IC50 (HEPG2TOX_HILL_SLOPE 0.355, HEPG2TOX_R_SQUARED 0.414, PBLUC_HILL_SLOPE 1.68, PBLUC_R_SQUARED 0.433, read-out: LUCIFERASE INFECTION ASSAY - IC50): 3.28 µM
Cc1oc2c(c1C(=O)N1CCN(CCO)CC1)C(=O)c1ccccc1C2=O | > 10 | IC50 (HEPG2TOX_HILL_SLOPE 0.333, HEPG2TOX_R_SQUARED 0.261, PBLUC_HILL_SLOPE 0.243, PBLUC_R_SQUARED 0.141, read-out: LUCIFERASE INFECTION ASSAY - IC50): 8.15 µM
O=C(NC1CC1)c1ccc(-c2cn3c(-c4ccc(C(=O)NC5CC5)cc4)cnc3cn2)cc1 | > 7.54 | IC50 (HEPG2TOX_HILL_SLOPE 0.33, HEPG2TOX_R_SQUARED 0.326, PBLUC_HILL_SLOPE 6.32, PBLUC_R_SQUARED 0.0215, read-out: LUCIFERASE INFECTION ASSAY - IC50): > 7.54 µM
CCN(CC)CCn1c(NC(=O)c2cccc3c[nH]nc23)nc2ccccc21 | > 10 | IC50 (HEPG2TOX_HILL_SLOPE 0.322, HEPG2TOX_R_SQUARED 0.707, PBLUC_HILL_SLOPE 3.59, PBLUC_R_SQUARED 0.259, read-out: LUCIFERASE INFECTION ASSAY - IC50): 6.09 µM
Cc1csc2ncnc(N3CCN(C(=O)Nc4ccc(Cl)c(Cl)c4)CC3)c12 | > 7.81 | IC50 (HEPG2TOX_HILL_SLOPE 0.318, HEPG2TOX_R_SQUARED 0.0791, PBLUC_HILL_SLOPE 1.99, PBLUC_R_SQUARED 0.376, read-out: LUCIFERASE INFECTION ASSAY - IC50): > 7.81 µM
O=C(Nc1nc2ccccn2c1C(=O)NC1CCCC1)c1ccccc1F | 4.76 | IC50 (HEPG2TOX_HILL_SLOPE 0.364, HEPG2TOX_R_SQUARED 0.251, PBLUC_HILL_SLOPE 7.71, PBLUC_R_SQUARED 0.78, read-out: LUCIFERASE INFECTION ASSAY - IC50): 3.58 µM
CCc1nn2c(=O)cc(CSc3nccc(C)n3)[nH]c2c1-c1ccc(F)cc1 | > 8.34 | IC50 (HEPG2TOX_HILL_SLOPE 0.32, HEPG2TOX_R_SQUARED 0.345, PBLUC_HILL_SLOPE 2.6, PBLUC_R_SQUARED 0.743, read-out: LUCIFERASE INFECTION ASSAY - IC50): 4.67 µM
FC(F)(F)Oc1ccc(-c2cnc3ccc(NCc4ccncc4)nn23)cc1 | 1.17 | IC50 (HEPG2TOX_HILL_SLOPE 0.34, HEPG2TOX_R_SQUARED 0.62, PBLUC_HILL_SLOPE 3.72, PBLUC_R_SQUARED 0.739, read-out: LUCIFERASE INFECTION ASSAY - IC50): 0.649 µM
